According to patent publication US10966954B2, “Electrophilically enhanced phenolic compounds for treating inflammatory related diseases and disorders” (priority 2016, dated 2021):
pEC50: −log10 of the molar value.

What was measured:
Assay in all cases: microbe, parasite or virus in culture
Assay type in all cases: cell-based
A/TX/36/91 (H1N1) = conditions: Influenza A virus, H1N1, MDCK, 168 h
A/HK/1/68 (H3N2) = conditions: Influenza A virus, H3N2, MDCK, 168 h
A/Perth/265/09 (H1N1) = conditions: Influenza A virus, H1N1, MDCK, 168 h

With CC(=O)N[C@H]1[C@H]([C@H](O)[C@H](O)CO)OC(C(=O)O)=C[C@@H]1N=C(N)N [Zanamivir] the pEC50 (A/TX/36/91 (H1N1)) was 6.14, the pEC50 (A/HK/1/68 (H3N2)) was 4.56 and the pEC50 (A/Perth/265/09 (H1N1)) was 5.82.
